Experiments:
dog STING (dSTING) = experiment: Dog differential scanning fluorimetry (DSF) assay, thermal shift of dog STING protein; format: binding; conditions: DSF (dDSF); 100 μM compound, 3 μM dog STING protein; Tm with ligand minus Tm of protein alone
Text: The protein used for the biophysical experiments was a recombinant dog STING protein comprising its cytosolic cGAMP binding ectodomain. A codon optimized DNA sequence (for expression in Escherichia coli) encoding amino acid residues 149 to 375 of dog STING was synthesized by GeneArt (Regensburg, Germany) and inserted into a pET17b E. coli expression vector. The protein construct encodes an N-terminal 8×His-tag followed by tobacco etch virus protease (TEV) cleavage site and the above STING gene sequence. The resulting protein sequence for the used dog STING protein (SEQ ID No. 1) is listed below:
For expression of the above recombinant dog STING, the construct was transformed into E. coli BL21 DE3 strain and grown in shake flasks in LB-medium at 15° C. Expression was induced by addition of isopropyl β-D-1-thiogalactopyranoside to a final concentration of 1 mM and cultures shaken overnight. Cell pellets were centrifuged and stored at −70° C. until further use. Protein was purified by cell thawing in lysis buffer (20 mM TRIS-HCl, pH 8, 500 mM NaCl, 1 mM DTT, 0.5 mg/ml lysozyme, Complete Protease Inhibitor (Roche) and DNase (Roche)), followed by metal affinity purification using Ni-NTA resins and elution buffer consisting of 20 mM TRIS-HCl, pH 8, 500 mM NaCl, 1 mM DTT, 300 mM imidazole. Cleavage of the His-Tag using TEV-protease took place during dialysis in size exclusion buffer (20 mM TRIS-HCl, pH 8, 100 mM NaCl, 1 mM DTT) over night. To further purify the target protein a reverse Nickel affinity column was used and the flow through was applied to a size exclusion chromatography. The peak fraction was collected and concentrated to 5 mg/mL.
Dye fluorescence is quenched in aqueous environment and increases upon association of the dye with the hydrophobic parts of the unfolding protein. […] The inflection point of the curve represents the “melting” temperature of the protein (Tm) which is calculated numerically using the Boltzmann equation.
The thermal stability of the dog STING protein was measured in assay buffer containing 20 mM Tris, 150 mM NaCl at pH7.5. The assay uses 384-Well qPCR Plates (Catalog #781358, BRAND), Microseal® ‘B’ Adhesive Seals for PCR Plates (Catalog #MSB-1001, BIO-RAD) and was run on a CFX384 Real-Time System (Bio-Rad). A DMSO stock solution of SYPRO orange (SIGMA 55692-500UL) was prepared. Compound stock solutions (10 mM in DMSO) were diluted 1:2 in DMSO to an intermediate compound concentration of 5 mM and then further diluted 1:40 in assay buffer resulting in a compound concentration of 125 μM and 2.5% DMSO. Fluorescent dye stock solution (5000×SYPRO Orange) was then mixed with target protein and buffer to a concentration of 15 μM Protein and 25×SYPRO Orange. 2 μl of this protein-dye-mixture was added to 8 μl compound solution. Final volume was 10 μL. 3-6 well positions were used as negative control (protein with 2% DMSO). The plates were prepared for duplicate measurement and centrifuged for 2 min at 1000 g. In the measurement, 160 cycles of 0.5° C. were used (temperature ramp 15 s/cycle, 15° C. to 95° C.).
Final Assay concentrations for compound characterization were 100 μM compound, 3 μM target protein, 5×SYPRO Orange, and 2% DMSO in 10 μl. All dispensing steps were performed using a HamiltonStar pipetting robot (Hamilton).
Dissociation curves were processed in Bio-Rad CFX Manager. Peak type was set to “negative”. Compound codes for screen were assigned in the plate layout.
Two replicates of TM measurements were averaged, and the standard deviation was calculated. In cases of SD>1.5° C. the measurement was repeated.
The melting point (Tm) obtained for STING protein alone was subtracted from T obtained for protein incubated with ligand to generate ΔTm values.

STING = STING (Canis lupus familiaris, UniProt A0A8I3MH52); experiment: Dog whole blood (dWB) assay, IFNb secretion by ELISA; format: cell-based; conditions: canine Interferon-beta (IFNb) ELISA, 4 h incubation at 37° C.
STING, sequence (A0A8I3MH52 1-374): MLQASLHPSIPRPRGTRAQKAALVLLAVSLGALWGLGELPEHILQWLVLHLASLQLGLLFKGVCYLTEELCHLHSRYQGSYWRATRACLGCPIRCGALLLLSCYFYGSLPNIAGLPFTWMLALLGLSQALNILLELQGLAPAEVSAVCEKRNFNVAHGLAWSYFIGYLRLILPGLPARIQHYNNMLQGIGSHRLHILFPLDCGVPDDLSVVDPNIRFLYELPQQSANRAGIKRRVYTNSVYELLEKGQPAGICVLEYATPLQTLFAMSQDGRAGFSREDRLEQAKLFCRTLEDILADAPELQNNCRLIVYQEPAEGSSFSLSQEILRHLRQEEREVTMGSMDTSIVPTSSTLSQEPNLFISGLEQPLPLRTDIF
Description: For the detection of STING activation in physiological environment dog whole blood (dWB) was stimulated by the cyclic dinucleotide cGAMP or a test compound. Pathway activity was monitored by measuring the IFNb production.
Compounds were delivered as 10 mM DMSO solution, diluted and transferred by using an Echo acoustic dispenser to the 384 well assay plate (Greiner #781182), pre-filled with 10 μl 1×HBSS in each well (10×HBSS (+Ca/+Mg), #14065-049, Gibco). Typically, 8 concentrations were used with the highest concentration at 10 μM in the final assay volume followed by approximately 1:4 dilution steps. DMSO concentration was set to 0.1% in the final assay volume. The 384-well assay plate contained 20 test compounds and DMSO in control and cGAMP standard wells. The dog whole blood was collected as Na-Citrate blood (e.g., 3.8% in Monovettes from Sarstedt) and kept at 4° C. overnight until use in the assay. 80 μl of the whole blood samples were transferred to each well of the 384-well assay plates filled with compound/1×HBSS. Blood plates were kept at room temperature for 60 minutes and continuous shaking with 450 rpm, covered with the lid, but not sealed. A 10×cGAMP assay solution was diluted from a 2 mM stock solution in 1×HBSS immediately before use at room temperature. 10 μl of the 10×cGAMP/HBSS were added to the high control wells, whereas HBSS only was added to all compound and low control wells. After covering assay plates with the lid, blood plates were kept for a 4 h incubation at 37° C. in the incubator, without shaking. For the detection of IFNb in dog plasma the ELISA Kit for Canine Interferon Beta (Biotrend #SEA222Ca) was used. Whole blood assay plates were centrifuged at 1000 g for 10 minutes at 8° C. […] was transferred with a 96 well pipetting robotics from the 384 well whole blood plate to the corresponding 96 well ELISA plate, pre-filled with 60 μl assay diluent in each well. Plates were sealed with microplate seals and kept at 4° C. overnight again. ELISA plates were brought to room temperature, followed by a 1 h incubation at 37° C. in the incubator. Detection Reagent A working solution was prepared by diluting Detection Reagent A 1:100 in Assay Reagent A. Liquid was then removed from the 96 well ELISA plate to add 100 μL Detection Reagent A working solution to each well. ELISA plates were covered with the plate sealer and incubated for 1 hour at 37° C. in the incubator. The 1× Wash buffer was prepared by diluting the 30× Wash Buffer Concentrate in H2O. Detection Reagent B working solution was prepared by diluting Detection Reagent B 1:100 in Assay Reagent B. The ELISA plates were washed three times with 350 μl wash buffer and afterwards inverted and blotted against absorbent paper to remove any liquid. 100 μL of Detection Reagent B working solution was added to each well of the ELISA plates, which are then covered with the plate sealer and incubated for 30 minutes at 37° C. in the incubator. After incubation the ELISA assay plates were washed five times with 350 μl wash buffer and were again inverted and blotted against absorbent paper to remove any remaining liquid. 90 μL of TMB Substrate was added to each well of the ELISA plates, which were then covered with the plate sealer and incubated for 15 minutes at 37° C. in the incubator. The reaction was stopped by adding 50 μL stop solution and absorbance was measured at 450 nm immediately.
For data evaluation and calculation, % control calculation of each well was based on the mean of high (cGAMP stimulated control) and mean of low (unstimulated control) controls by using the following standard 4 parameter logistic regression formula:
[y=(a−d)/(1+(x/c)^b)+d] • a=low value, • d=high value, • x=conc M, • c=EC50 M, • b=slope. Dog Liver Microsome (dLM) Assay

Cc1cccc2c(-c3ccc(F)c4nn(C)cc34)nn(-c3ccc(N4CCC(C(=O)O)CC4)nc3)c12 [Example 4, 1-(5-{7″-Fluoro-2″,7-dimethyl-1H,2″H-[3,4″-biindazol]-1-yl}pyridin-2-yl)piperidine-4-carboxylic acid]
Delta TM (dog STING (dSTING)): 31.0 °C
EC50 (STING): 757 nM

Cc1cccc2c(-c3c(F)ccc4nn(C)cc34)nn(-c3ccc(N4C[C@@H]5[C@H](C4)[C@H]5C(=O)O)nc3)c12 [Example 5, (1R,5S,6S)-3-(5-{5″-Fluoro-2″,7-dimethyl-1H,2″H-[3,4″-biindazol]-1-yl}pyridin-2-yl)-3-azabicyclo[3.1.0]hexane-6-carboxylic acid]
Delta TM (dog STING (dSTING)): 36.5 °C
EC50 (STING): 282 nM

Cc1cccc2c(-c3c(F)ccc4nn(C)cc34)nn(-c3ccc(N4CCC(C(=O)O)CC4)nc3)c12 [Example 6, 1-(5-{5″-Fluoro-2″,7-dimethyl-1H,2″H-[3,4″-biindazol]-1-yl}pyridin-2-yl)piperidine-4-carboxylic acid]
Delta TM (dog STING (dSTING)): 35.5 °C
EC50 (STING): 243 nM

Cc1cccc2c(-c3c(F)cc(F)c4nn(C)cc34)nn(-c3ccc(N4C[C@@H]5[C@H](C4)[C@H]5C(=O)O)nc3)c12 [Example 7, (1R,5S,6S)-3-(5-{5″,7″-Difluoro-2″,7-dimethyl-1H,2″H-[3,4″-biindazol]-1-yl}pyridin-2-yl)-3-zabicyclo[3.1.0]hexane-6-carboxylic acid]
Delta TM (dog STING (dSTING)): 35.5 °C
EC50 (STING): 250 nM

CC(=O)N1CCN(c2ccc(-n3nc(-c4cccc5nn(C)c(F)c45)c4cccc(C)c43)cn2)CC1 [Example 8, 1-[4-(5-{3″-Fluoro-2″,7-dimethyl-1H,2″H-[3,4″-biindazol]-1-yl}pyridin-2-yl)piperazin-1-yl]ethan-1-one]
Delta TM (dog STING (dSTING)): 32.5 °C
EC50 (STING): 168 nM

Cc1cccc2c(-c3cccc4nn(C)c(F)c34)nn(-c3ccc(N4CCN(C=O)CC4)nc3)c12 [Example 9, 4-(5-{3″-Fluoro-2″,7-dimethyl-1H,2″H-[3,4″-biindazol]-1-yl}pyridin-2-yl)piperazine-1-carbaldehyde]
Delta TM (dog STING (dSTING)): 28.5 °C
EC50 (STING): 192 nM

Cc1cc(F)cc2c(-c3cccc4nn(C)c(F)c34)nn(-c3ccc(N4C[C@@H]5[C@H](C4)[C@H]5C(=O)O)nc3)c12 [Example 10, (1R,5S,6R)-3-(5-{3′,5-Difluoro-2′,7-dimethyl-1H,2′H-[3,4′-biindazol]-1-yl}pyridin-2-yl)-3-azabicyclo[3.1.0]hexane-6-carboxylic acid]
Delta TM (dog STING (dSTING)): 33.1 °C
EC50 (STING): 350 nM

Cc1c(F)ccc2c(-c3cccc4nn(C)c(F)c34)nn(-c3ccc(N4C[C@@H]5[C@H](C4)[C@H]5C(=O)O)nc3)c12 [Example 11, (1R,5S,6R)-3-(5-{3″,6-Difluoro-2″,7-dimethyl-1H,2″H-[3,4″-biindazol]-1-yl}pyridin-2-yl)-3-azabicyclo[3.1.0]hexane-6-carboxylic acid]
Delta TM (dog STING (dSTING)): 34.8 °C
EC50 (STING): 458 nM

Cc1cc(F)cc2c(-c3ccc(F)c4nn(C)cc34)nn(-c3ccc(N4C[C@@H]5[C@H](C4)[C@H]5C(=O)O)nc3)c12 [Example 12, (1R,5S,6R)-3-(5-{5,7″-Difluoro-2″,7-dimethyl-1H,2″H-[3,4″-biindazol]-1-yl}pyridin-2-yl)-3-azabicyclo[3.1.0]hexane-6-carboxylic acid]
Delta TM (dog STING (dSTING)): 21.7 °C
EC50 (STING): 609 nM

Cc1cccc2c(-c3ccc(F)c4nn(C)c(F)c34)nn(-c3ccc(N4C[C@@H]5[C@H](C4)[C@H]5C(=O)O)nc3)c12 [Example 13, (1R,5S,6R)-3-(5-{3″,7″-Difluoro-2″,7-dimethyl-1H,2″H-[3,4″-biindazol]-1-yl}pyridin-2-yl)-3-azabicyclo[3.1.0]hexane-6-carboxylic acid]
Delta TM (dog STING (dSTING)): 33.3 °C
EC50 (STING): 174 nM

Cc1cc(F)cc2c(-c3c(F)ccc4nn(C)cc34)nn(-c3ccc(N4C[C@@H]5[C@H](C4)[C@H]5C(=O)O)nc3)c12 [Example 14, (1R,5S,6R)-3-(5-{5,5″-Difluoro-2″,7-dimethyl-1H,2″H-[3,4″-biindazol]-1-yl}pyridin-2-yl)-3-azabicyclo[3.1.0]hexane-6-carboxylic acid]
Delta TM (dog STING (dSTING)): 38.0 °C
EC50 (STING): 391 nM

Cc1cc(F)cc2c(-c3c(F)cc(F)c4nn(C)cc34)nn(-c3ccc(N4C[C@@H]5[C@H](C4)[C@H]5C(=O)O)nc3)c12 [Example 15, (1R,5S,6R)-3-(5-{5,5″,7″-Trifluoro-2″,7-dimethyl-1H,2″H-[3,4″-biindazol]-1-yl}pyridin-2-yl)-3-azabicyclo[3.1.0]hexane-6-carboxylic acid]
Delta TM (dog STING (dSTING)): 36.8 °C
EC50 (STING): 1170 nM

Cc1cccc2c(-c3cccc4nn(C)c(F)c34)nn(-c3ccc(N4CC[C@@H](CC(=O)O)C4)nc3)c12 [Example 16, 2-[(3S)-1-(5-{3″-fluoro-2″,7-dimethyl-1H,2″H-[3,4″-biindazol]-1-yl}pyridin-2-yl)pyrrolidin-3-yl]acetic acid]
Delta TM (dog STING (dSTING)): 34.0 °C
EC50 (STING): 267 nM

Reference: patent US20240174641A1, “HETEROCYCLIC COMPOUNDS CAPABLE OF […]” (Boehringer Ingelheim International GmbH, priority 2022, published 2024)
